# Measured values: paper PMC6990405, “Synthesis and Structure–Activity relationship of 1-(5-isoquinolinesulfonyl)piperazine analogues as inhibitors of Mycobacterium tuberculosis IMPDH” (European Journal of Medicinal Chemistry, 2019)
# Test system: M. tuberculosis guaB2 cKD mutant
# Format: cell-based
# Settings: increase in potency against guaB2 cKD mutant upon guaB2 silencing
row,SMILES,Hyper-sensitivity to guaB2 cKD
1,"COc1cccc(CNC(=O)N2CCN(S(=O)(=O)c3cccc4cnccc34)CC2)c1 [Compound 47, 4-(isoquinolin-5-ylsulfonyl)-N-(3-methoxybenzyl)piperazine-1-carboxamide]",8-fold

# Test system: M. tuberculosis SRMV2.6 (IMPDH Tyr487Cys)
# Format: cell-based, Mycobacterium tuberculosis
# Settings: not given
SMILES,MIC90 against SRMV2.6,fold more active against SRMV2.6 than wild-type M. tuberculosis
"O=C(NCCNS(=O)(=O)c1cccc2cnccc12)C1CCCCC1 [Compound 2, N-{2-[(isoquinoline-5-sulfonyl)amino]ethyl}cyclohexanecarboxamide]",>250 µM,
"CC1CN(S(=O)(=O)c2cccc3cnccc23)CCN1C(=O)C1CCCCC1 (centres unmarked) [Compound 3, Cyclohexyl[4-(isoquinoline-5-sulfonyl)-2-methylpiperazin-1-yl]methanone]",100 µM,
"O=C(NC1CCN(S(=O)(=O)c2cccc3cnccc23)CC1)C1CCCCC1 [Compound 4, N-[1-(isoquinoline-5-sulfonyl)piperidin-4-yl]cyclohexanecarboxamide]",>100 µM,
"O=C(C1CCCCC1)N1CCC(NS(=O)(=O)c2cccc3cnccc23)CC1 [Compound 5, N-[1-(cyclohexanecarbonyl)piperidin-4-yl]isoquinoline-5-sulfonamide]",>100 µM,
"Cc1cc2c(S(=O)(=O)N3CCN(C(=O)C4CCCCC4)CC3)cccc2cn1 [Compound 6, Cyclohexyl[4-(3-methylisoquinoline-5-sulfonyl)piperazin-1-yl]methanone]",>100 µM,
"O=C(C1CCCCC1)N1CCN(S(=O)(=O)c2cccc3ccccc23)CC1 [Compound 7, Cyclohexyl[4-(naphthalene-1-sulfonyl)piperazin-1-yl]methanone]",>100 µM,
"O=C(C1CCCCC1)N1CCN(S(=O)(=O)c2ccc3ccccc3c2)CC1 [Compound 8, Cyclohexyl[4-(naphthalene-2-sulfonyl)piperazin-1-yl]methanone]",>100 µM,
"O=C(NCCNS(=O)(=O)c1cccc2cnccc12)C1CC1 [Compound 9, N-{2-[(isoquinoline-5-sulfonyl)amino]ethyl}cyclopropanecarboxamide]",100 µM,
"O=C(NCCNS(=O)(=O)c1cccc2cnccc12)C1CCC1 [Compound 10, N-{2-[(isoquinoline-5-sulfonyl)amino]ethyl}cyclobutanecarboxamide]",100 µM,
"CC(C)(C)C(=O)N1CCN(S(=O)(=O)c2cccc3cnccc23)CC1 [Compound 11, 1-[4-(isoquinoline-5-sulfonyl)piperazin-1-yl]-2,2-dimethylpropan-1-one]",100 µM,
"CC1(C(=O)N2CCN(S(=O)(=O)c3cccc4cnccc34)CC2)CCCCC1 [Compound 12, [4-(isoquinoline-5-sulfonyl)piperazin-1-yl](1-methylcyclohexyl)methanone]",>250 µM,
"O=C(c1ccccc1)N1CCN(S(=O)(=O)c2cccc3cnccc23)CC1 [Compound 15, [4-(isoquinoline-5-sulfonyl)piperazin-1-yl](phenyl)methanone]",>100 µM,
"N#Cc1cccc(C(=O)N2CCN(S(=O)(=O)c3cccc4cnccc34)CC2)c1 [Compound 16, 3-[4-(isoquinoline-5-sulfonyl)piperazine-1-carbonyl]benzonitrile]",50 µM,
"N#Cc1ccc(C(=O)N2CCN(S(=O)(=O)c3cccc4cnccc34)CC2)cc1 [Compound 17, 4-[4-(isoquinoline-5-sulfonyl)piperazine-1-carbonyl]benzonitrile]",100 µM,
"O=C(c1cc([N+](=O)[O-])cc([N+](=O)[O-])c1)N1CCN(S(=O)(=O)c2cccc3cnccc23)CC1 [Compound 19, [4-(isoquinoline-5-sulfonyl)piperazin-1-yl](3,5-dinitrophenyl)methanone]",100 µM,
"COc1cc(C(=O)N2CCN(S(=O)(=O)c3cccc4cnccc34)CC2)cc(OC)c1OC [Compound 20, [4-(isoquinoline-5-sulfonyl)piperazin-1-yl](3,4,5-trimethoxyphenyl)methanone]",>125 µM,
"O=C(NCCNS(=O)(=O)c1cccc2cnccc12)c1cc([N+](=O)[O-])cc([N+](=O)[O-])c1 [Compound 21, N-{2-[(isoquinoline-5-sulfonyl)amino]ethyl}-3,5-dinitrobenzamide]",3.9 µM,4 fold
"O=C(CC1CCC2(CC1)OCCO2)N1CCN(S(=O)(=O)c2cccc3cnccc23)CC1 [Compound 23, 2-(1,4-dioxaspiro[4.5]decan-8-yl)-1-[4-(isoquinoline-5-sulfonyl)piperazin-1-yl]ethan-1-one]",>250 µM,
"N#Cc1cccc(CC(=O)N2CCN(S(=O)(=O)c3cccc4cnccc34)CC2)c1 [Compound 24, 3-{2-[4-(isoquinoline-5-sulfonyl)piperazin-1-yl]-2-oxoethyl}benzonitrile]",>250 µM,
"O=C(Cc1cccc(O)c1)N1CCN(S(=O)(=O)c2cccc3cnccc23)CC1 [Compound 25, 2-(3-hydroxyphenyl)-1-[4-(isoquinoline-5-sulfonyl)piperazin-1-yl]ethan-1-one]",>250 µM,

SMILES,MIC90 against SRMV2.6,fold more active against SRMV2.6 than wild-type M. tuberculosis
"COc1cccc(CC(=O)N2CCN(S(=O)(=O)c3cccc4cnccc34)CC2)c1 [Compound 26, 1-[4-(isoquinoline-5-sulfonyl)piperazin-1-yl]-2-(3-methoxyphenyl)ethan-1-one]",>250 µM,
"COc1ccc(CC(=O)N2CCN(S(=O)(=O)c3cccc4cnccc34)CC2)c(OC)c1 [Compound 27, 1-[4-(isoquinoline-5-sulfonyl)piperazin-1-yl]-2-(2,4-dimethoxyphenyl)ethan-1-one]",>250 µM,
"Cc1cccc(CC(=O)N2CCN(S(=O)(=O)c3cccc4cnccc34)CC2)c1 [Compound 28, 1-(4-(isoquinolin-5-ylsulfonyl)piperazin-1-yl)-2-(m-tolyl)ethan-1-one]",>250 µM,
"O=C(Cc1ccc(F)cc1)N1CCN(S(=O)(=O)c2cccc3cnccc23)CC1 [Compound 29, 2-(4-fluorophenyl)-1-(4-(isoquinolin-5-ylsulfonyl)piperazin-1-yl)ethan-1-one]",>100 µM,
"O=C(Cc1ccc([N+](=O)[O-])cc1)N1CCN(S(=O)(=O)c2cccc3cnccc23)CC1 [Compound 30, 1-(4-(isoquinolin-5-ylsulfonyl)piperazin-1-yl)-2-(4-nitrophenyl)ethan-1-one]",>250 µM,
"N#Cc1cccc(NC(=O)N2CCN(S(=O)(=O)c3cccc4cnccc34)CC2)c1 [Compound 31, N-(3-cyanophenyl)-4-(isoquinolin-5-ylsulfonyl)piperazine-1-carboxamide]",31.2 µM,
"O=C(Nc1cccc(C(F)(F)F)c1)N1CCN(S(=O)(=O)c2cccc3cnccc23)CC1 [Compound 32, 4-(isoquinolin-5-ylsulfonyl)-N-(3-(trifluoromethyl)phenyl)piperazine-1-carboxamide]",125 µM,
"O=C(Nc1ccc(Cl)cc1)N1CCN(S(=O)(=O)c2cccc3cnccc23)CC1 [Compound 33, N-(4-chlorophenyl)-4-(isoquinolin-5-ylsulfonyl)piperazine-1-carboxamide]",>250 µM,
"O=C(Nc1ccc(Cl)c(C(F)(F)F)c1)N1CCN(S(=O)(=O)c2cccc3cnccc23)CC1 [Compound 34, N-(4-chloro-3-(trifluoromethyl)phenyl)-4-(isoquinolin-5-ylsulfonyl)piperazine-1-carboxamide]",50 µM,
"O=C(Nc1ccc(Cl)c([N+](=O)[O-])c1)N1CCN(S(=O)(=O)c2cccc3cnccc23)CC1 [Compound 35, N-(4-chloro-3-nitrophenyl)-4-(isoquinolin-5-ylsulfonyl)piperazine-1-carboxamide]",>100 µM,
"O=C(Nc1ccc(F)c(Cl)c1)N1CCN(S(=O)(=O)c2cccc3cnccc23)CC1 [Compound 36, N-(3-chloro-4-fluorophenyl)-4-(isoquinolin-5-ylsulfonyl)piperazine-1-carboxamide]",62.5 µM,
"O=C(Nc1cccc(Cl)c1Cl)N1CCN(S(=O)(=O)c2cccc3cnccc23)CC1 [Compound 37, N-(2,3-dichlorophenyl)-4-(isoquinolin-5-ylsulfonyl)piperazine-1-carboxamide]",>250 µM,
"Cc1ccc(NC(=O)N2CCN(S(=O)(=O)c3cccc4cnccc34)CC2)cc1Cl [Compound 38, N-(3-chloro-4-methylphenyl)-4-(isoquinolin-5-ylsulfonyl)piperazine-1-carboxamide]",100 µM,
"Cc1ccc(NC(=O)N2CCN(S(=O)(=O)c3cccc4cnccc34)CC2)c([N+](=O)[O-])c1 [Compound 39, 4-(isoquinolin-5-ylsulfonyl)-N-(4-methyl-2-nitrophenyl)piperazine-1-carboxamide]",25 µM,
"Cc1cccc(Cl)c1NC(=O)N1CCN(S(=O)(=O)c2cccc3cnccc23)CC1 [Compound 40, N-(2-chloro-6-methylphenyl)-4-(isoquinolin-5-ylsulfonyl)piperazine-1-carboxamide]",>250 µM,
"O=C(Nc1ccc2c(c1)OCO2)N1CCN(S(=O)(=O)c2cccc3cnccc23)CC1 [Compound 41, N-(benzo[d][1,3]dioxol-5-yl)-4-(isoquinolin-5-ylsulfonyl)piperazine-1-carboxamide]",>100 µM,
"O=S(=O)(c1cccc2cnccc12)N1CCN(C(=S)Nc2ccc3c(c2)OCO3)CC1 [Compound 42, N-(benzo[d][1,3]dioxol-5-yl)-4-(isoquinolin-5-ylsulfonyl)piperazine-1-carbothioamide]",>100 µM,
"O=C(Nc1ccc2c(c1)OCO2)N1CCC(NS(=O)(=O)c2cccc3cnccc23)CC1 [Compound 43, 4-[(isoquinoline-5-sulfonyl)amino]-N-(2H-1,3-benzodioxol-5-yl)piperidine-1-carboxamide]",>100 µM,
"O=C(OCc1ccccc1)N1CCN(S(=O)(=O)c2cccc3cnccc23)CC1 [Compound 49, Benzyl 4-(isoquinolin-5-ylsulfonyl)piperazine-1-carboxylate]",100 µM,
